Literature values as cited in patent publication US20150044284A1, “DOSAGE FORM COMPRISING A STEROID 5-ALPHA-REDUCTASE INHIBITOR AND AN ALPHA BLOCKER, PROCESS FOR PREPARING OF A DOSAGE FORM, USE OF DOSAGE FORM, METHOD FOR THE TREATMENT OR PROPHYLAXIS OF A DISEASE OR CONDITION MEDIATED BY ANDROGEN” (EMS S.A., priority 2013, published 2015).

What was measured:
[1] = test system: DHT (dihydrotestosterone); settings: after only two weeks

In the case of C[C@]12C=CC(=O)N[C@@H]1CC[C@@H]1[C@@H]2CC[C@]2(C)[C@@H](C(=O)Nc3cc(C(F)(F)F)ccc3C(F)(F)F)CC[C@@H]12 [dutasteride], the “Reduction of DHT levels” value [1] is listed as 90% and the Solubility in water is listed as “completely insoluble in water”.
